# Tested on: groupe de huit goûteurs expérimentés
# Assay: Sweetening power judged by a panel of eight experienced tasters against a sucrose reference solution
# Assay type: in vivo
# Settings: weight basis; for Pouvoir édulcorant: Table II, relative to a 2 % sucrose solution; for pouvoir édulcorant, sur une base pondérale: approximate
# Text: Le pouvoir édulcorant des composés préparés dans les exemples suivants a été évalué par un groupe de huit goûteurs expérimentés. Pour cela, les composés, en solution aqueuse à des concentrations variables, sont comparés, sur le plan gustatif, à une solution témoin de saccharose à 2 % et dans certains cas à 5 % et 10 %, c'est-à-dire à des concentrations correspondant à celles utilisées lors d'un usage courant. Le pouvoir sucrant des édulcorants de synthèse varie en effet suivant la concentration de la solution de saccharose utilisée comme référence. Le pouvoir édulcorant du composé testé par rapport au saccharose correspond alors au rapport pondéral qui existe entre le composé et le saccharose à égale intensité édulcorante, c'est-à-dire quand les saveurs sucrées de la solution du composé testé et de la solution témoin de saccharose sont considérées, par une majorité de goûteurs, avoir la même intensité édulcorante.
# [1] = by comparison with a 2 % sucrose solution
# [2] = by comparison with a 5 % sucrose solution
# [3] = by comparison with a 10 % sucrose solution
SMILES,Pouvoir édulcorant,"pouvoir édulcorant, sur une base pondérale [1]","pouvoir édulcorant, sur une base pondérale [2]","pouvoir édulcorant, sur une base pondérale [3]"
"C[C@@H](NC(=Nc1ccc(C#N)cc1)NCC(=O)O)c1ccccc1 [Exemple 54, acide N-[N-(R)-a-méthylbenzylamino (4-cyanophénylimino)méthyl]-2-aminoéthanoïque]",9000,~9 000 fois celui du saccharose,~6600 times sucrose,~2 500 fois celui du saccharose
"O=C(O)CNC(=C[N+](=O)[O-])Nc1cc(Cl)cc(Cl)c1 [Exemple 29, acide N-[2-nitro(3,5-dichlorophénylamino)éthényl]-2-aminoéthanoïque]",400,~400 fois celui du saccharose,,
"N#Cc1ccc(N=C(NCC(=O)O)N2CCCCC2)cc1 [Exemple 83, acide N-[N,N-(pentaméthylène)amino (4-cyanophénylimino)méthyl]-2-aminoéthanoïque]",200,~200 fois celui du saccharose,,
"CN(C(=Nc1ccc(C#N)cc1)NCC(=O)O)c1ccccc1 [Exemple 74, acide N-[N-(N-méthyl-N-phénylamino) (4-cyanophénylimino)méthyl]-2-aminoéthanoïque]",18000,~18 000 fois celui du saccharose,,
"C[C@H](NC(=Nc1ccc([N+](=O)[O-])cc1)NCC(=O)O)c1ccccc1 [Exemple 18, acide N-[N-(S)-a-méthylbenzylamino (4-nitrophénylimino)méthyl]-2-aminoéthanoïque]",7000,~7 000 fois celui du saccharose,,
"CC1(C)SC(C)(C)C1NC(=Nc1ccc(C#N)cc1)NCC(=O)O [Exemple 78, acide N-[N-(2,2,4,4-tétraméthylthiacyclobut-3-yl)amino(4-cyanophénylimino)méthyl]-2-amino-éthanoïque]",700,~700 fois celui du saccharose,,
"CCc1cccc(N=C(NCC(=O)O)N[C@@H](C)c2ccccc2)c1 [Exemple 5, acide N-[N-(S) -α-méthylbenzylamino (3-éthylphénylimino)méthyl]-2-aminoéthanoïque]",4 500,~4 500 fois celui du saccharose,,
"N#Cc1ccc(N=C(NCC(=O)O)Nc2cccc3ccccc23)cc1 [Exemple 69, acide N-[N-1-naphtylamino(4-cyanophénylimino)méthyl)-2-aminoéthanoïque]",60000,~60 000 fois celui du saccharose,,
"N#Cc1ccc(N=C(NCC(=O)O)NCC2CCCCC2)cc1 [Exemple 59, acide N-[N-cyclohexylméthylamino(4-cyanophénylimino)méthyl]-2-aminoéthanoïque]",35000,~35 000 fois celui du saccharose,~28 000 fois celui du saccharose,~17 000 fois celui du saccharose
"C[C@H](NC(=Nc1cccc(Br)c1)NCC(=O)O)c1ccccc1 [Exemple 2, acide N-[N-(S)-a-méthylbenzylamino (3-bromophénylimino)méthyl]-2-aminoéthanoïque]",25000,~25 000 fois celui du saccharose,,
"O=C(O)CNC(=Nc1cc(Cl)cc(Cl)c1)NCc1ccccc1 [Exemple 51, acide N-[N-benzylamino(3,5-dichlorophénylimino)méthyl]-2-aminoéthanoïque]",80000,~80 000 fois celui du saccharose,,
"N#Cc1ccc(N=C(NCC(=O)O)NC2CCCCCCCC2)cc1 [Exemple 50, acide N-[N-cyclononylamino(4-cyanophénylimino)méthyl]-2-aminoéthanoïque]",200000,~200 000 fois celui du saccharose,,
"O=C(O)CNC(=Nc1cc(Cl)cc(Cl)c1)NC1CCCCCC1 [Exemple 44, acide N-[N-cycloheptylamino (3,5-dichlorophénylimino)méthyl]-2-aminoéthanoïque]",20000,~20 000 fois celui du saccharose,,
"CC(NC(=Nc1cc(Cl)cc(Cl)c1)N[C@H](C)C(=O)O)c1ccccc1 (stereo partly drawn) [Exemple 86, acide (R)-N-[N-(S)-α-méthylbenzylamino(3,5-dichlorophénylimino)méthyl]-2-aminopropanoïque]",120,~120 fois celui du saccharose,,
"CCCCCCN=C(NCC(=O)O)Nc1ccc(C#N)cc1 [Exemple 36, acide N-[N-hexylamino(4-cyanophénylimino)méthyl]-2-aminoéthanoïque]",6000,~6 000 fois celui du saccharose,~4 300 fois celui du saccharose,~1400 times sucrose
"Cc1cc(NC(=NC2CCCCCCC2)NCC(=O)O)ccc1C#N [Exemple 48, acide N-[N-cyclooctylamino(4-cyano-3-méthylphénylimino)méthyl]-2-aminoéthanoïque]",80000,~80 000 fois celui du saccharose,,
"O=C(O)CNC(=Nc1ccccc1)NC1CCCCC1 [Exemple 42, acide N-[N-cyclohexylamino(phénylimino)méthyl]-2-aminoéthanoïque]",100,~100 fois celui du saccharose,,
"N#Cc1ccc(N=C(NCC(=O)O)Nc2ccccc2)cc1 [Exemple 41, acide N-[N-phénylamino(4-cyanophénylimino)méthyl]-2-aminoéthanoïque]",4000,~4 000 fois celui du saccharose,~1 800 fois celui du saccharose,~650 fois celui du saccharose
"O=C(O)CNC(=Nc1cccc2ccccc12)Nc1cc(Cl)cc(Cl)c1 [Exemple 68, acide N-[N-1-naphtylamino (3,5-dichlorophénylimino)méthyl]-2-aminoéthanoïque]",30000,~30 000 fois celui du saccharose,,
"CC(=O)c1ccc(N=C(NCC(=O)O)N[C@@H](C)c2ccccc2)cc1 [Exemple 15, acide N-[N-(S) -α-méthylbenzylamino (4-acétylphénylimino)méthyl]-2-aminoéthanoïque]",800,~800 fois celui du saccharose,,
"C[C@H](NC(=Nc1cccc([N+](=O)[O-])c1)NCC(=O)O)c1ccccc1 [Exemple 8, acide N-[N-(S)-α-méthylbenzylamino (3-nitrophénylimino)méthyl] -2-aminoéthanoique]",6000,~6 000 fois celui du saccharose,,
"C[C@H](NC(=Nc1cccc(Cl)c1)NCC(=O)O)c1ccccc1 [Exemple 6, acide N-[N-(S)-α-méthylbenzylamino (3-chlorophénylimino)méthyl]-2-aminoéthanoïque]",30000,~30 000 fois celui du saccharose,,
"O=C(O)CNC(=Nc1ccc([N+](=O)[O-])cc1)NCC1CCCCC1 [Exemple 62, acide N-[N-cyclohexylméthylamino(4-nitrophénylimino)méthyl]-2-aminoéthanoïque]",8000,~8 000 fois celui du saccharose,~7 500 fois celui du saccharose,~4 000 fois celui du saccharose
C[C@H](NC(=Nc1cccc(C(F)(F)F)c1)NCC(=O)O)c1ccccc1 [Exemple 3],7 500,~7 500 fois celui du saccharose,,
"O=C(O)CNC(=Nc1cc(Cl)cc(Cl)c1)NN1CCOCC1 [Exemple 76, acide N-[N-morpholinoamino (3,5-dichlorophénylimino)méthyl]-2-aminoéthanoïque]",500,~500 fois celui du saccharose,,
"C[C@H](NC(=Nc1ccc(C(F)(F)F)cc1)NCC(=O)O)c1ccccc1 [Exemple 11, acide N-[N-(S)-α-méthylbenzylamino (4-trifluorométhylphénylimino)méthyl]-2-aminoéthanoïque]",500,~500 fois celui du saccharose,,
"COc1ccc(N=C(NCC(=O)O)N[C@@H](C)c2ccccc2)cc1 [Exemple 19, acide N-[N-(S)-α-méthylbenzylamino (4-méthoxyphénylimino)méthyl]-2-aminoéthanoïque]",2 100,~2100 times sucrose,,
"C[C@H](NC(=Nc1ccccc1)NCC(=O)O)c1ccccc1 [Exemple 1, acide N-[N-(S)-α-méthylbenzylamine (phénylimino)méthyl]-2-aminoéthanoïque]",5000,~5 000 fois celui du saccharose,,
CC1(NC(=Nc2ccc(C#N)cc2)NCC(=O)O)CCCCC1 [Exemple 67],100,~100 fois celui du saccharose,,
"C[C@@H](NC(=Nc1ccc(C#N)cc1)NC1CCCCCCC1)C(=O)O [Exemple 87, acide (R)-N-[N-cyclooctylamino(4-cyanophénylimino)méthyl]-2-aminopropanoïque]",900,~900 fois celui du saccharose,,

# From EP0241395A2, “Sweeteners derived from n-phenylguanidinoacetic and n-phenylethananamidinacetic acids, and compositions containing such sweeteners” (UNIVERSITE CLAUDE BERNARD - LYON 1, priority 1986, dated 1987)
